Results published in patent US6828462B2, “Unsaturated 1-amino-alkylcyclohexane NMDA, 5HT3, and neuronal nicotinic receptor antagonists” (Merz Pharma GmbH & Co. KGAA, priority 2001, dated 2004).

Experiments:
NMDA receptors = target: T1, NMDA receptors (Rattus norvegicus, UniProt P35439); assay: Patch clamp, NMDA-induced currents in hippocampal neurones; assay type: cell-based
T1 construct: Patch clamp recordings were made from these neurones; endogenous in cells; host or cells: primary cultured hippocampal neurones from rat embryos (E20 to E21)

[1] = Accelerating rotarod test, ataxia (motor coordination); assay type: in vivo, mice; settings: mouse, in vivo, ip; NMR female mice, accelerating rotarod
Procedure: (§1) NMR female mice (18-28 g) housed 5 per cage were used for the maximal electroshock (MES) and motor impairment tests. All animals were kept with water and food ad libitum under a 12 hour light-dark cycle (light on at 6 a.m.) and at a controlled temperature (20±0.5C). All experiments were performed between 10 a.m. and 5 p.m. Tested agents were injected 30 min. i.p. before the induction of convulsions if not stated otherwise (see below). All compounds were dissolved in 0.9% saline.
(§2) The MES test was performed together with tests for myorelaxant action (traction reflex) and motor coordination (rotarod). For the traction reflex test mice were placed with their forepaws on a horizontal rod and were required to place all 4 paws on the wire within 10 seconds. To test ataxia (motor coordination) mice were placed on an accelerating rotarod and were required to remain on the rod for 1 minute. […] These tests were followed by MES (100 Hz, 0.5 second shock duration, 50 mA shock intensity, 0.9 ms impulse duration, Ugo Basile) applied through corneal electrodes. The presence of tonic convulsions was scored (tonic extension of hind paws with minimum angle to the body of 90). The aim was to obtain ED50s for all parameters scored (anticonvulsive activity and motor side effects) with use of the Litchfield Wilcoxon test for quantal dose responses. Division of the ED50 for side effects (ataxia or myorelaxation) by the ED50 for antagonism of electroshock convulsions was used as a therapeutic index (TI).
(§3) 4-7 doses of antagonists were tested in each of the in vivo tests (5-8 animals per dose) to allow calculation of graded ED50s according to probit analysis (Litchfield and Wilcoxon) with correction for 0% to 100% effects. ED50s are presented with 95% confidence limits (Cl). Pearson product moment correlation analysis (Sigma Stat, Jandel Scientific) was used to compare in vitro potencies and in vivo anticonvulsant activity.

ataxia (rotarod) = assay: as above; assay type: in vivo, mice; settings: ED50 ataxia divided by ED50 MES
Procedure: as §1, §2, §3

[2] = Traction reflex test, myorelaxant action; assay type: in vivo, mice; settings: mouse, in vivo, ip; NMR female mice, i.p., traction reflex; read-out: Myorelaxation ED50
Procedure: as §1, §2, §3

[3] = test system: myorelaxation (traction reflex); assay: Traction reflex test, myorelaxant action; assay type: in vivo, mice; settings: ED50 myorelaxation divided by ED50 MES
Procedure: as §1, §2, §3

NR1a/2A receptors = target: T2, NR1a/2A receptors (Homo sapiens, UniProt Q05586+Q12879); assay: NMDA receptor blockade in Xenopus oocytes, two-electrode voltage clamp; assay type: cell-based; settings: Xenopus oocytes expressing NR1a/2A
T2 construct: expressed in transfected cells; host or cells: Xenopus laevis oocytes injected with subunit RNA
Procedure: Mature female Xenopus laevis were anaesthetized in 0.2% Tricaine on ice for 15 min prior to surgery. Oocytes were removed and incubated in 2 mg/ml collagenase (type II) in Ca^2+-free oocyte Ringer solution (82.5 mM NaCl, 2 mM KCl, 2 mM MgCl2, 5 mM HEPES, pH 7.5) for 30 min. at room temperature and washed thoroughly with OR-2 (100 mM NaCl, 2 mM KCl, 1 mM MgCl2, 2 mM CaCl2, 5 mM HEPES, pH 7.5). The remaining follicle cell layer was removed manually with fine forceps and the oocytes were kept in OR-2. The RNA was dissolved in DEPC-treated, sterile distilled water. RNA for the NMDA NR1a subunit was mixed 1:1 with RNA for the NR2A subunit. Likewise neuronal nicotinic α4 RNA was mixed 1:1 with RNA for the β2 subunit. […]
Only results from stable cells were accepted for inclusion in the final analysis i.e. showing at least 50% recovery of responses to NMDA following removal of the antagonist tested. […] All antagonists were assessed at steady-state blockade with 6 to 7 concentrations on at least 4 cells. […]
Kinetic experiments were performed by applying various concentrations of unsaturated amino-alkyl-cyclohexanes (normally 5 in a log 3 dosing regime) for 10-20 seconds in the continuous presence of glutamate (100 μM and glycine 10 μM) for 90-180 seconds in Xenopus oocytes expressing NR1a/2A receptors. […] Voltage-dependency was then determined by comparing the glutamate and glutamate plus antagonist curves. […]

[4] = target: NMDA receptor ([3H]-(+)-MK-801 site) (Rattus norvegicus, UniProt P35439); assay: [3H]-(+)-MK-801 receptor binding, rat cortex membranes
[5] = test system: maximal electroshock (MES) tonic convulsions; assay: Maximal electroshock (MES) test, anticonvulsive activity; assay type: in vivo, mice; settings: Mus musculus, ip; NMR female mice, i.p. 30 min before convulsions; read-out: MES ED50
Procedure: as §1, §2, §3

T2 sequence (Q12879 23-1464, other chains not shown): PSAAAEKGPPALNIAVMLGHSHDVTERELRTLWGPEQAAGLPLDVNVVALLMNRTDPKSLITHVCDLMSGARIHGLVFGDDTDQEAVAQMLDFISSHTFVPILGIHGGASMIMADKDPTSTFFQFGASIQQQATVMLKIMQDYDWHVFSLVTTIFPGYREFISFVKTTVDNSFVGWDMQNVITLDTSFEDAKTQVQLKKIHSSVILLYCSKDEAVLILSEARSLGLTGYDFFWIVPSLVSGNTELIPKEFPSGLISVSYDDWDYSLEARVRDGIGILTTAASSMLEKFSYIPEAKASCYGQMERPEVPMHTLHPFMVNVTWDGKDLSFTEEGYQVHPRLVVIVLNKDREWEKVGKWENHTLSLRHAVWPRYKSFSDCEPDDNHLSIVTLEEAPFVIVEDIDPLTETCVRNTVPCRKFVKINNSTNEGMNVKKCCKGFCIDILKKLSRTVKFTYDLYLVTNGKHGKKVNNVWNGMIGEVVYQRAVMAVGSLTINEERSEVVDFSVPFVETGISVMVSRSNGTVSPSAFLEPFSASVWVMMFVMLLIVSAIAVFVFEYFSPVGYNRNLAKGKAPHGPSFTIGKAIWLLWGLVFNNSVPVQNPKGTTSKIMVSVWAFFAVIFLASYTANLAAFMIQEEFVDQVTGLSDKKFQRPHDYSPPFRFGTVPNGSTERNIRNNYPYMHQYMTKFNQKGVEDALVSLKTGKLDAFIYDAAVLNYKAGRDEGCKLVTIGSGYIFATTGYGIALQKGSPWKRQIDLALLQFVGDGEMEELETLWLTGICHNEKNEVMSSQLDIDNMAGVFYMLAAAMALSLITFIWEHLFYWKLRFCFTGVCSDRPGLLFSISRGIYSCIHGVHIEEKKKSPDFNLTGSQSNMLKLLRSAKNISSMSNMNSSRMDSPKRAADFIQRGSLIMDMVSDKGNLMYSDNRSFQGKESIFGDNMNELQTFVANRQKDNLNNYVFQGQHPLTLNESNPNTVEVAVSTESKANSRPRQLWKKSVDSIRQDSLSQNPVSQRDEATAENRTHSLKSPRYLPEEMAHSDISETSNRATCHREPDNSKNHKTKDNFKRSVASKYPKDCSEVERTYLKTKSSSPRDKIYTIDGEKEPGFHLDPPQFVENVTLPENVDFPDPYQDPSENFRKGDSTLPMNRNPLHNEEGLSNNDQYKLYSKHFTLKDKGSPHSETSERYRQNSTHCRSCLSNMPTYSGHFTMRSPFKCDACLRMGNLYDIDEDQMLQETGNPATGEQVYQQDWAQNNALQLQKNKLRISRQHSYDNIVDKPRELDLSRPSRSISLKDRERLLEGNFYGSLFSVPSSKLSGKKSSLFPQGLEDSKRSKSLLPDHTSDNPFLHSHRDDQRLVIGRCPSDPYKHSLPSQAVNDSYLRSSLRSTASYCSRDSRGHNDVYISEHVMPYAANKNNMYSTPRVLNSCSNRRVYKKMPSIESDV

Question: Which results are given for `C=CC1(N)CC(C)(C)CC(C)(C)C1` [MRZ 2/759, 1-Ethenyl-3,3,5,5-tetramethylcyclohexylamine]?
Answer: IC50 (NMDA receptors; Table 1, mean, N=6, read-out: NMDA IC50): 3.28 µM; use- and voltage-dependency of blockade (NMDA receptors; hippocampal neurones, NMDA-induced currents): clear use- and voltage-dependency; Steady-state inward current responses to NMDA (NMDA receptors; hippocampal neurones, NMDA 200 μM with glycine 1 μM at -70 mV): antagonized; ED50 at 30 min [1]: 15 mg/kg; Therapeutic index (ataxia ED50 / MES ED50) (ataxia (rotarod)): 1.0; ED50 at 30 min [2]: 12.8 mg/kg; Therapeutic index (myorelaxation ED50 / MES ED50) [3]: 0.9; IC50 (NR1a/2A receptors; glutamate 100 μM, glycine 10 μM, -70 mV): 1990 nM; Hill (NR1a/2A receptors; logistic fit of the concentration-blockade curve): 0.75; Ki [4]: 1180 nM; ED50 [5]: 14.8 mg/kg
